From PubChem BioAssay AID248 (DTP/NCI, 2004)
Values joined by “and” are separate entries in the source; they are usually repeats but may differ in a detail not shown here. Equal entries are not always repeated. Toxic doses and inconclusive results are not listed. Rule as the data show it: active = T/C of 150% or more; inactive = T/C below 125%.

Tested on: L1210 leukemia ip in BDF1 mice, survival T/C
Experiment: NCI In Vivo Anticancer Drug Screen. Data for tumor model L1210 Leukemia (intraperitoneal) in B6D2F1 (BDF1) mice
Details: endpoint: mean survival time, higher = longer survival
Summary of the method: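 Survival endpoint. Drug-treated group vs vehicle group, expressed as T divided by C. Tumor passaged by transplantation.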

[1] = dose: 100.0 mg/kg/injection, schedule: Q04DX003 (ip), vehicle: Klucel (hydroxypropylcellulose) (HPC)
[2] = dose: 200.0 mg/kg/injection, schedule: Q04DX003 (ip), vehicle: Klucel (hydroxypropylcellulose) (HPC)
[3] = dose: 400.0 mg/kg/injection, schedule: Q04DX003 (ip), vehicle: Klucel (hydroxypropylcellulose) (HPC)
[4] = dose: 100.0 mg/kg/injection, schedule: Q01DX001 (ip), vehicle: Klucel (hydroxypropylcellulose) (HPC)
[5] = dose: 200.0 mg/kg/injection, schedule: Q01DX001 (ip), vehicle: Klucel (hydroxypropylcellulose) (HPC)
[6] = dose: 100.0 mg/kg/injection, schedule: Q04DX003 (ip), vehicle: saline with Tween-80
[7] = dose: 200.0 mg/kg/injection, schedule: Q04DX003 (ip), vehicle: saline with Tween-80
[8] = dose: 400.0 mg/kg/injection, schedule: Q04DX003 (ip), vehicle: saline with Tween-80
[9] = dose: 5.0 mg/kg/injection, schedule: Q01DX001 (ip), vehicle: saline
[10] = dose: 10.0 mg/kg/injection, schedule: Q01DX001 (ip), vehicle: saline
[11] = dose: 20.0 mg/kg/injection, schedule: Q01DX001 (ip), vehicle: saline
[12] = dose: 100.0 mg/kg/injection, schedule: Q01DX001 (ip), vehicle: saline
[13] = dose: 200.0 mg/kg/injection, schedule: Q01DX001 (ip), vehicle: saline
[14] = dose: 400.0 mg/kg/injection, schedule: Q01DX001 (ip), vehicle: saline
[15] = dose: 100.0 mg/kg/injection, schedule: Q01DX009 (ip), vehicle: saline with Tween-80
[16] = dose: 100.0 mg/kg/injection, schedule: Q04DX003 (ip), vehicle: saline
[17] = dose: 200.0 mg/kg/injection, schedule: Q01DX009 (ip), vehicle: saline with Tween-80
[18] = dose: 200.0 mg/kg/injection, schedule: Q04DX003 (ip), vehicle: saline
[19] = dose: 400.0 mg/kg/injection, schedule: Q01DX009 (ip), vehicle: saline with Tween-80
[20] = dose: 400.0 mg/kg/injection, schedule: Q04DX003 (ip), vehicle: saline
[21] = dose: 50.0 mg/kg/injection, schedule: Q01DX009 (ip), vehicle: saline with Tween-80
[22] = dose: 100.0 mg/kg/injection, schedule: Q04DX002 (ip), vehicle: saline with Tween-80
[23] = dose: 200.0 mg/kg/injection, schedule: Q04DX002 (ip), vehicle: saline with Tween-80
[24] = dose: 400.0 mg/kg/injection, schedule: Q04DX002 (ip), vehicle: saline with Tween-80

Measured: T/C

N#CCCCCCCn1cnc2c(=S)nc[nH]c21
inactive: [1] 104 % of control | [2] 107 % of control | [3] 107 % of control

CC(C)(C)C(=O)Cn1nnnc1C(=O)C(C)(C)C
inactive: dose: 50.0 mg/kg/injection, schedule: Q04DX003 (ip), vehicle: Klucel (hydroxypropylcellulose) (HPC) 105 % of control | [4] 105 % of control | [1] 103 % of control | [5] 108 % of control | [2] 100 % of control

O=C(C[n+]1ccc2ccccc2c1)c1cccc([N+](=O)[O-])c1
inactive: [6] 105 % of control | [7] 97 % of control | [8] 100 % of control

O=[N+]([O-])c1c(Cl)nc2ccccn12
inactive: dose: 3.13 mg/kg/injection, schedule: Q01DX009 (ip), vehicle: saline 93 % of control | [9] 100 % of control | dose: 6.25 mg/kg/injection, schedule: Q01DX009 (ip), vehicle: saline 95 % of control | [10] 98 % of control | dose: 12.5 mg/kg/injection, schedule: Q01DX009 (ip), vehicle: saline 93 % of control | [11] 100 % of control | dose: 25.0 mg/kg/injection, schedule: Q01DX009 (ip), vehicle: saline 93 % of control | dose: 40.0 mg/kg/injection, schedule: Q01DX001 (ip), vehicle: saline 96 % of control | dose: 80.0 mg/kg/injection, schedule: Q01DX001 (ip), vehicle: saline 93 % of control | [12] 101 % of control | [13] 110 % of control | [14] 108 % of control

CCN(c1c(C)cc(C)c(N(CC(=O)O)S(=O)(=O)c2ccccc2)c1C)S(=O)(=O)c1ccccc1
inactive: [15] 101 % of control | [16] 94 % of control | [17] 97 % of control | [18] 100 % of control | [19] 95 % of control | [20] 103 % of control

Cc1ccc2ccc(-c3ccccc3)nc2c1
inactive: [12] 96 % of control | dose: 100.0 mg/kg/injection, schedule: Q01DX009 (ip), vehicle: saline 93 % of control | [13] 105 % of control | dose: 200.0 mg/kg/injection, schedule: Q01DX009 (ip), vehicle: saline 90 % of control | [14] 109 % of control | dose: 400.0 mg/kg/injection, schedule: Q01DX009 (ip), vehicle: saline 92 % of control

O=C(N/N=C\c1ccccc1Cl)C(=O)N/N=C\c1ccccc1Cl
inactive: [6] 94 % of control | [7] 94 % of control | [8] 88 % of control

OC(CC(O)(C(F)(F)F)C(F)(F)F)c1cccc(C(F)(F)F)c1 (configuration not stated)
inactive: dose: 100.0 mg/kg/injection, schedule: Q01DX009 (ip), vehicle: other 96 % of control | dose: 100.0 mg/kg/injection, schedule: Q04DX003 (ip), vehicle: other 101 % of control | dose: 200.0 mg/kg/injection, schedule: Q01DX009 (ip), vehicle: other 96 % of control | dose: 400.0 mg/kg/injection, schedule: Q01DX009 (ip), vehicle: other 96 % of control | dose: 400.0 mg/kg/injection, schedule: Q04DX003 (ip), vehicle: other 92 % of control

CCCCCCCCCCCCCCCCCC[N+](CCCC)(CCCC)CCCCCCCCCCCCCCCCCC (tested in a mixture with another compound)
inactive: dose: 100.0 mg/kg/injection, schedule: Q01DX001 (ip), vehicle: other 93 % of control | dose: 200.0 mg/kg/injection, schedule: Q01DX001 (ip), vehicle: other 90 % of control

O=C1C(n2ccc(=O)n(Cc3ccccc3)c2=O)CCN1CCO (configuration not stated)
inactive: [16] 96 % of control | [18] 119 % of control | [20] 102 % of control

BrC1C2C3C=CC4C(C=C3)C4C12 (configuration not stated)
inactive: dose: 50.0 mg/kg/injection, schedule: Q01DX001 (ip), vehicle: Klucel (hydroxypropylcellulose) (HPC) 100 % of control and 101 % of control | [4] 98 % of control and 111 % of control | [5] 108 % of control and 93 % of control

COc1ccc(CC(=O)NCCc2ccc3c(c2)OCO3)cc1OC
inactive: [21] 89 % of control | [15] 91 % of control | [6] 92 % of control | [17] 92 % of control | [7] 96 % of control

CCOC(=O)N/N=C/c1cccc([N+](=O)[O-])c1
inactive: dose: 75.0 mg/kg/injection, schedule: Q01DX001 (ip), vehicle: saline 104 % of control | dose: 150.0 mg/kg/injection, schedule: Q01DX001 (ip), vehicle: saline 100 % of control | dose: 300.0 mg/kg/injection, schedule: Q01DX001 (ip), vehicle: saline 101 % of control

O=C(O)/C=C/[P+](c1ccccc1)(c1ccccc1)c1ccccc1
inactive: [9] 101 % of control | [10] 106 % of control | [11] 101 % of control

Nc1cc(=O)n(Cc2ccccc2)c(=O)n1Cc1ccccc1
inactive: dose: 50.0 mg/kg/injection, schedule: Q01DX001 (ip), vehicle: carboxymethylcellulose (CMC) 104 % of control | dose: 100.0 mg/kg/injection, schedule: Q01DX001 (ip), vehicle: carboxymethylcellulose (CMC) 101 % of control | dose: 200.0 mg/kg/injection, schedule: Q01DX001 (ip), vehicle: carboxymethylcellulose (CMC) 111 % of control | dose: 400.0 mg/kg/injection, schedule: Q01DX001 (ip), vehicle: carboxymethylcellulose (CMC) 98 % of control

O=C(CCCCCCCCC(=O)N/N=C/c1ccccc1)N/N=C/c1ccccc1
inactive: dose: 100.0 mg/kg/injection, schedule: Q01DX001 (ip), vehicle: saline with Tween-80 96 % of control and 90 % of control | [15] 102 % of control and 92 % of control | [22] 93 % of control and 97 % of control | [6] 97 % of control | dose: 200.0 mg/kg/injection, schedule: Q01DX001 (ip), vehicle: saline with Tween-80 88 % of control | [17] 93 % of control and 97 % of control | [23] 95 % of control and 87 % of control | [7] 97 % of control | dose: 400.0 mg/kg/injection, schedule: Q01DX001 (ip), vehicle: saline with Tween-80 86 % of control and 91 % of control | [19] 91 % of control and 92 % of control | [24] 93 % of control and 90 % of control | [8] 92 % of control

CCCCC(CC)(CC)OC(=O)c1ccc([N+](=O)[O-])cc1
inactive: [22] 87 % of control | [23] 106 % of control | [24] 98 % of control

CCOC(=O)NC(=S)Nc1ncn[nH]1
inactive: [16] 96 % of control | [18] 97 % of control | [20] 103 % of control

O=C(Nc1ccc(S(=O)(=O)F)cc1)/C(=C/c1ccc([N+](=O)[O-])cc1)c1ccccc1
inactive: dose: 12.5 mg/kg/injection, schedule: Q01DX009 (ip), vehicle: saline with Tween-80 102 % of control | dose: 25.0 mg/kg/injection, schedule: Q01DX009 (ip), vehicle: saline with Tween-80 109 % of control | [21] 98 % of control

O=c1ccn(CCC(COCc2ccccc2)COCc2ccccc2)c(=O)[nH]1
inactive: [1] 96 % of control | [2] 101 % of control | [3] 101 % of control

Cc1cccc(C)c1NC(=O)NCc1ccco1
inactive: dose: 25.0 mg/kg/injection, schedule: Q04DX002 (ip), vehicle: Klucel (hydroxypropylcellulose) (HPC) 99 % of control | dose: 50.0 mg/kg/injection, schedule: Q04DX002 (ip), vehicle: Klucel (hydroxypropylcellulose) (HPC) 118 % of control | dose: 100.0 mg/kg/injection, schedule: Q01DX009 (ip), vehicle: Klucel (hydroxypropylcellulose) (HPC) 103 % of control | dose: 100.0 mg/kg/injection, schedule: Q04DX002 (ip), vehicle: Klucel (hydroxypropylcellulose) (HPC) 100 % of control and 103 % of control | [1] 103 % of control | dose: 200.0 mg/kg/injection, schedule: Q01DX009 (ip), vehicle: Klucel (hydroxypropylcellulose) (HPC) 107 % of control | [2] 100 % of control | dose: 400.0 mg/kg/injection, schedule: Q01DX009 (ip), vehicle: Klucel (hydroxypropylcellulose) (HPC) 102 % of control | [3] 93 % of control

CCOC(Cn1ccc(=O)[nH]c1=O)OCC
inactive: dose: 100.0 mg/kg/injection, schedule: Q04DX003 (ip), vehicle: saline sonified 109 % of control | dose: 200.0 mg/kg/injection, schedule: Q04DX003 (ip), vehicle: saline sonified 96 % of control | dose: 400.0 mg/kg/injection, schedule: Q04DX003 (ip), vehicle: saline sonified 105 % of control
